Source: PubChem BioAssay AID248 (DTP/NCI, 2004)
Where “and” joins values, the source holds several entries; their conditions need not be identical. Equal entries are not always repeated. Inconclusive results and toxic doses are left out. No stated cut-off is given here; in the data, active means T/C of 150% or more; inactive means T/C below 125%.

Tested on: L1210 leukemia ip in BDF1 mice, survival T/C
Experiment: NCI In Vivo Anticancer Drug Screen. Data for tumor model L1210 Leukemia (intraperitoneal) in B6D2F1 (BDF1) mice
Conditions: endpoint: mean survival time, higher = longer survival
Method in brief: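 Each compound was tested against a transplantable tumor grown in mice. The endpoint was survival, with treated animals benchmarked against vehicle controls as a simple ratio.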

[1] = dose: 100.0 mg/kg/injection, schedule: Q01DX001 (ip), vehicle: carboxymethylcellulose (CMC)
[2] = dose: 200.0 mg/kg/injection, schedule: Q01DX001 (ip), vehicle: carboxymethylcellulose (CMC)
[3] = dose: 100.0 mg/kg/injection, schedule: Q04DX003 (ip), vehicle: saline
[4] = dose: 200.0 mg/kg/injection, schedule: Q04DX003 (ip), vehicle: saline
[5] = dose: 400.0 mg/kg/injection, schedule: Q04DX003 (ip), vehicle: saline
[6] = dose: 100.0 mg/kg/injection, schedule: Q01DX001 (ip), vehicle: saline
[7] = dose: 200.0 mg/kg/injection, schedule: Q01DX001 (ip), vehicle: saline
[8] = dose: 400.0 mg/kg/injection, schedule: Q01DX001 (ip), vehicle: saline
[9] = dose: 50.0 mg/kg/injection, schedule: Q01DX009 (ip), vehicle: saline with Tween-80
[10] = dose: 100.0 mg/kg/injection, schedule: Q04DX003 (ip), vehicle: Klucel (hydroxypropylcellulose) (HPC)
[11] = dose: 200.0 mg/kg/injection, schedule: Q04DX003 (ip), vehicle: Klucel (hydroxypropylcellulose) (HPC)
[12] = dose: 400.0 mg/kg/injection, schedule: Q04DX003 (ip), vehicle: Klucel (hydroxypropylcellulose) (HPC)
[13] = dose: 100.0 mg/kg/injection, schedule: Q01DX009 (ip), vehicle: saline with Tween-80
[14] = dose: 200.0 mg/kg/injection, schedule: Q01DX009 (ip), vehicle: saline with Tween-80

Measured: T/C

CC(=O)Nc1ccc(NC(=O)c2ccc([As](O)O)cc2)cc1
inactive: dose: 25.0 mg/kg/injection, schedule: Q01DX001 (ip), vehicle: carboxymethylcellulose (CMC) 100 % of control | dose: 50.0 mg/kg/injection, schedule: Q01DX001 (ip), vehicle: carboxymethylcellulose (CMC) 102 % of control | [1] 107 % of control | [2] 113 % of control

O=C(NC(CSSCC(NC(=O)OCc1ccccc1)C(=O)O)C(=O)O)OCc1ccccc1 (stereo unspecified)
inactive: dose: 85.0 mg/kg/injection, schedule: Q01DX009 (ip), vehicle: other 98 % of control | dose: 100.0 mg/kg/injection, schedule: Q01DX009 (ip), vehicle: saline 94 % of control and 98 % of control | dose: 100.0 mg/kg/injection, schedule: Q04DX003 (ip), vehicle: other 98 % of control | [3] 90 % of control | dose: 135.0 mg/kg/injection, schedule: Q01DX009 (ip), vehicle: other 88 % of control | dose: 200.0 mg/kg/injection, schedule: Q01DX009 (ip), vehicle: other 97 % of control | dose: 200.0 mg/kg/injection, schedule: Q01DX009 (ip), vehicle: saline 118 % of control and 92 % of control | dose: 200.0 mg/kg/injection, schedule: Q04DX003 (ip), vehicle: other 88 % of control | [4] 102 % of control | dose: 300.0 mg/kg/injection, schedule: Q01DX009 (ip), vehicle: other 99 % of control | dose: 400.0 mg/kg/injection, schedule: Q01DX009 (ip), vehicle: saline 94 % of control and 104 % of control | dose: 400.0 mg/kg/injection, schedule: Q04DX003 (ip), vehicle: other 96 % of control | [5] 101 % of control

CCCCN(Cl)C(C)=O
inactive: [6] 96 % of control | [7] 100 % of control | [8] 96 % of control

O=C(C[n+]1ccccc1)N/N=C/c1ccccc1O
inactive: dose: 12.5 mg/kg/injection, schedule: Q01DX009 (ip), vehicle: saline with Tween-80 86 % of control | dose: 25.0 mg/kg/injection, schedule: Q01DX009 (ip), vehicle: saline with Tween-80 86 % of control | [9] 96 % of control

COc1ccc2c(c1C)CCC1(CO)CC(C)=CCC21 (stereo unspecified)
inactive: dose: 100.0 mg/kg/injection, schedule: Q01DX009 (ip), vehicle: saline sonified 93 % of control | dose: 200.0 mg/kg/injection, schedule: Q01DX009 (ip), vehicle: saline sonified 94 % of control | dose: 400.0 mg/kg/injection, schedule: Q01DX009 (ip), vehicle: saline sonified 91 % of control

CCC12CCCN3C(=O)CC(C(=O)CC1)C32 (stereo unspecified)
inactive: [3] 107 % of control

CN1CCCN(C(=S)S)CC1
inactive: dose: 30.0 mg/kg/injection, schedule: Q01DX001 (ip), vehicle: saline 96 % of control | [6] 95 % of control

CCCCNC(=O)CS(=O)(=O)c1ccc(Cl)cc1
inactive: dose: 100.0 mg/kg/injection, schedule: Q04DX003 (ip), vehicle: saline with Tween-80 94 % of control | dose: 200.0 mg/kg/injection, schedule: Q04DX003 (ip), vehicle: saline with Tween-80 100 % of control | dose: 400.0 mg/kg/injection, schedule: Q04DX003 (ip), vehicle: saline with Tween-80 94 % of control

CCCN1CC(Br)C(=O)NC1=O (stereo unspecified)
inactive: dose: 100.0 mg/kg/injection, schedule: Q01DX Z (ip), vehicle: methylcellulose (MC) 90 % of control

CCCCCCCCCCCCSCCC(=O)O
inactive: [6] 98 % of control | [7] 95 % of control | [8] 93 % of control

c1ccc(CCNc2ccc(NCCc3ccccc3)cc2)cc1
inactive: dose: 75.0 mg/kg/injection, schedule: Q01DX001 (ip), vehicle: Klucel (hydroxypropylcellulose) (HPC) 92 % of control | dose: 75.0 mg/kg/injection, schedule: Q01DX009 (ip), vehicle: Klucel (hydroxypropylcellulose) (HPC) 97 % of control | dose: 150.0 mg/kg/injection, schedule: Q01DX001 (ip), vehicle: Klucel (hydroxypropylcellulose) (HPC) 106 % of control | dose: 150.0 mg/kg/injection, schedule: Q01DX009 (ip), vehicle: Klucel (hydroxypropylcellulose) (HPC) 100 % of control | dose: 300.0 mg/kg/injection, schedule: Q01DX001 (ip), vehicle: Klucel (hydroxypropylcellulose) (HPC) 97 % of control | dose: 300.0 mg/kg/injection, schedule: Q01DX009 (ip), vehicle: Klucel (hydroxypropylcellulose) (HPC) 106 % of control

Cc1ccc2nc(Nc3ccc(Cl)cc3)cc(C(O)C3CCCCN3)c2c1 (stereo unspecified)
inactive: [10] 96 % of control | [11] 92 % of control | [12] 97 % of control

CC12CCC(C1)C(C)(C)C2NCCCN1C(=O)c2ccc3c4c(ccc(c24)C1=O)C(=O)N(CCCNC1C2(C)CCC(C2)C1(C)C)C3=O (stereo unspecified)
inactive: dose: 25.0 mg/kg/injection, schedule: Q01DX009 (ip), vehicle: saline 102 % of control | dose: 25.0 mg/kg/injection, schedule: Q04DX003 (ip), vehicle: saline 98 % of control | dose: 50.0 mg/kg/injection, schedule: Q01DX009 (ip), vehicle: saline 117 % of control | dose: 50.0 mg/kg/injection, schedule: Q04DX003 (ip), vehicle: saline 94 % of control | [3] 96 % of control and 90 % of control

O=C(NCC1=NCCN1)c1ccccc1
inactive: dose: 100.0 mg/kg/injection, schedule: Q04DX002 (ip), vehicle: saline 96 % of control | dose: 200.0 mg/kg/injection, schedule: Q04DX002 (ip), vehicle: saline 89 % of control | dose: 400.0 mg/kg/injection, schedule: Q04DX002 (ip), vehicle: saline 96 % of control

O=c1oc2ccccc2c(Cl)c1Cl
inactive: dose: 10.0 mg/kg/injection, schedule: Q01DX001 (ip), vehicle: saline 109 % of control

CC(=O)CC(=O)Nc1ccc([N+](=O)[O-])cc1
inactive: [13] 97 % of control | [3] 96 % of control | [14] 111 % of control | [4] 96 % of control | dose: 400.0 mg/kg/injection, schedule: Q01DX009 (ip), vehicle: saline with Tween-80 102 % of control | [5] 92 % of control

CC1CCc2ccccc2N1C1=NCCO1 (stereo unspecified)
inactive: dose: 19.0 mg/kg/injection, schedule: Q04DX003 (ip), vehicle: saline 97 % of control | dose: 38.0 mg/kg/injection, schedule: Q04DX003 (ip), vehicle: saline 94 % of control | dose: 75.0 mg/kg/injection, schedule: Q01DX001 (ip), vehicle: saline 102 % of control

Cc1cccc(C)c1NC(=O)OCCSc1ccc(Cl)cc1
inactive: [9] 115 % of control | [13] 96 % of control | [14] 93 % of control

CNc1ccc(N=Nc2ccc3ncccc3c2)cc1
inactive: dose: 3.8 mg/kg/injection, schedule: Q01DX009 (ip), vehicle: saline 98 % of control | dose: 6.7 mg/kg/injection, schedule: Q01DX Z (ip), vehicle: carboxymethylcellulose (CMC) 98 % of control | dose: 7.5 mg/kg/injection, schedule: Q01DX009 (ip), vehicle: saline 102 % of control | dose: 10.0 mg/kg/injection, schedule: Q01DX Z (ip), vehicle: carboxymethylcellulose (CMC) 92 % of control | dose: 15.0 mg/kg/injection, schedule: Q01DX009 (ip), vehicle: saline 98 % of control | dose: 15.0 mg/kg/injection, schedule: Q01DX Z (ip), vehicle: carboxymethylcellulose (CMC) 92 % of control | dose: 30.0 mg/kg/injection, schedule: Q01DX009 (ip), vehicle: saline 89 % of control

Nc1nc(N)nc(-c2cccc(Cl)c2)n1
inactive: dose: 25.0 mg/kg/injection, schedule: Q04DX003 (ip), vehicle: Klucel (hydroxypropylcellulose) (HPC) 107 % of control | dose: 50.0 mg/kg/injection, schedule: Q04DX003 (ip), vehicle: Klucel (hydroxypropylcellulose) (HPC) 101 % of control | dose: 100.0 mg/kg/injection, schedule: Q04DX002 (ip), vehicle: Klucel (hydroxypropylcellulose) (HPC) 111 % of control | [10] 102 % of control

NCC(O)C(F)(F)C(F)(F)C(F)(F)F (stereo unspecified)
inactive: [1] 103 % of control | [2] 103 % of control | dose: 400.0 mg/kg/injection, schedule: Q01DX001 (ip), vehicle: carboxymethylcellulose (CMC) 95 % of control

CC(C)(C)C(=O)CC(=O)C(C)(C)C.CC(C)(C)C(=O)CC(=O)C(C)(C)C.CC(C)(C)C(=O)CC(=O)C(C)(C)C.CC(C)(C)C(=O)CC(=O)C(C)(C)C.[Hf]
inactive: dose: 100.0 mg/kg/injection, schedule: Q01DX009 (ip), vehicle: Klucel (hydroxypropylcellulose) (HPC) 100 % of control | [10] 97 % of control | dose: 200.0 mg/kg/injection, schedule: Q01DX009 (ip), vehicle: Klucel (hydroxypropylcellulose) (HPC) 100 % of control | [11] 97 % of control | dose: 400.0 mg/kg/injection, schedule: Q01DX009 (ip), vehicle: Klucel (hydroxypropylcellulose) (HPC) 100 % of control | [12] 100 % of control
